The source made the active and inactive calls. The rule behind the calls is not given here.
Tests used:
L02 [1] = experiment: Hepatoprotective activity against concanavalin A induced liver injury in human HL7702 cells assessed as cell survival rate at 5 uM preincubated for 12 hrs followed by concanavalin A stimulation for 12 hrs by MTT assay (reference value: 51.37%); format: functional; conditions: time 24 hrs, read-out: Survival
L02 [2] = experiment: Hepatoprotective activity against concanavalin A induced livery injury in human HL7702 cells assessed as decrease in JAK2 phosphorylation level at 5 uM preincubated for 12 hrs followed by concanavalin A stimulation for 12 hrs by Western blot analysis; format: functional, cell-based; conditions: time 24.0 hrs
L02 [3] = experiment: Cytotoxicity against human HL7702 cells ssessed as cell survival rate at 5 uM for 12 hrs by MTT assay; format: toxicity, cell-based; conditions: l02, 12 h
L02 [4] = experiment: Hepatoprotective activity against concanavalin A induced human HL7702 cell apoptosis assessed as decrease in Bax expression level at 5 uM preincubated for 12 hrs followed by concanavalin A stimulation for 12 hrs by Western blot analysis; format: functional, cell-based; conditions: time 24.0 hrs
L02 [5] = experiment: Hepatoprotective activity against concanavalin A induced livery injury in human HL7702 cells assessed as increase in HO-1 expression level at 5 uM preincubated for 12 hrs followed by concanavalin A stimulation for 12 hrs by Western blot analysis; format: functional, cell-based; conditions: time 24.0 hrs
L02 [6] = experiment: Hepatoprotective activity against concanavalin A induced human HL7702 cell apoptosis assessed as increase in Bcl-2 expression level at 5 uM preincubated for 12 hrs followed by concanavalin A stimulation for 12 hrs by Western blot analysis; format: functional, cell-based; conditions: time 24.0 hrs
L02 [7] = experiment: Hepatoprotective activity against concanavalin A induced livery injury in human HL7702 cells assessed as decrease in STAT3 phosphorylation level at 5 uM preincubated for 12 hrs followed by concanavalin A stimulation for 12 hrs by Western blot analysis; format: functional, cell-based; conditions: time 24.0 hrs
L02 [8] = experiment: Hepatoprotective activity against concanavalin A induced human HL7702 cell apoptosis assessed as nuclear morphological changes at 5 uM preincubated for 12 hrs followed by concanavalin A stimulation for 12 hrs by Hoechst 33342 staining based fluorescence microscopy; format: functional; conditions: time 24.0 hrs
L02 [9] = experiment: Hepatoprotective activity against concanavalin A induced human HL7702 cell apoptosis assessed as decrease in cleaved caspase-3 level at 5 uM preincubated for 12 hrs followed by concanavalin A stimulation for 12 hrs by Western blot analysis; format: functional, cell-based; conditions: time 24.0 hrs
Mus musculus [10] = experiment: (§1) Hepatoprotective activity against concanavalin A induced C57BL/6 mouse livery injury model assessed as decrease in phosphorylated STAT3 level in liver at 150 mg/kg, ip once daily for 2 weeks followed by concanavalin A stimulation and measured after 12 hrs by DAB staining based immunohistological anlaysis; format: functional, organism-based
L02 [11] = experiment: Hepatoprotective activity against concanavalin A induced livery injury in human HL7702 assessed as decrease in IL-6 expression level at 5 uM preincubated for 12 hrs followed by concanavalin A stimulation for 12 hrs by Western blot analysis; format: functional, cell-based; conditions: time 24.0 hrs
Mus musculus [12] = experiment: Hepatoprotective activity against concanavalin A induced C57BL/6 mouse livery injury model assessed as decrease in serum ALT level at 150 mg/kg, ip once daily for 2 weeks followed by concanavalin A stimulation and measured after 12 hrs; format: functional, organism-based
Mus musculus [13] = experiment: as §1, with “cleaved caspase-3” for “phosphorylated STAT3”; format: functional, organism-based
L02 [14] = experiment: Hepatoprotective activity against concanavalin A induced livery injury in human HL7702 assessed as decrease in IL-6 expression level at 5 uM preincubated for 24 hrs followed by concanavalin A stimulation for 12 hrs by ELISA assay; format: functional, cell-based; conditions: time 36.0 hrs
Mus musculus [15] = experiment: Hepatoprotective activity against concanavalin A induced C57BL/6 mouse livery injury model assessed as decrease in cleaved caspase 3 level at 150 mg/kg, ip once daily for 2 weeks followed by concanavalin A stimulation and measured after 12 hrs by Western blot analysis; format: functional, organism-based
Mus musculus [16] = experiment: Hepatoprotective activity against concanavalin A induced C57BL/6 mouse livery injury model assessed as decrease in Bax level at 150 mg/kg, ip once daily for 2 weeks followed by concanavalin A stimulation and measured after 12 hrs by Western blot analysis; format: functional, organism-based
Mus musculus [17] = experiment: Hepatoprotective activity against concanavalin A induced C57BL/6 mouse livery injury model assessed as decrease in JAK2 phosphorylation level at 150 mg/kg, ip once daily for 2 weeks followed by concanavalin A stimulation and measured after 12 hrs by Western blot analysis; format: functional, organism-based
Mus musculus [18] = experiment: Hepatoprotective activity against concanavalin A induced C57BL/6 mouse livery injury model assessed as increase in Bcl-2 level at 150 mg/kg, ip once daily for 2 weeks followed by concanavalin A stimulation and measured after 12 hrs by Western blot analysis; format: functional, organism-based
Mus musculus [19] = experiment: Hepatoprotective activity against concanavalin A induced C57BL/6 mouse livery injury model assessed as decrease in severity of liver damage at 150 mg/kg, ip once daily for 2 weeks followed by concanavalin A stimulation and measured after 12 hrs by H&E staining based […]; format: functional, organism-based
Mus musculus [20] = experiment: Hepatoprotective activity against concanavalin A induced C57BL/6 mouse livery injury model assessed as decrease in serum AST level at 150 mg/kg, ip once daily for 2 weeks followed by concanavalin A stimulation and measured after 12 hrs; format: functional, organism-based
Mus musculus [21] = experiment: Hepatoprotective activity against concanavalin A induced C57BL/6 mouse livery injury model assessed as decrease in STAT3 phosphorylation level at 150 mg/kg, ip once daily for 2 weeks followed by concanavalin A stimulation and measured after 12 hrs by Western blot analysis; format: functional, organism-based
Mus musculus [22] = experiment: Hepatoprotective activity against concanavalin A induced C57BL/6 mouse livery injury model assessed as decrease in serum IL-6 level at 150 mg/kg, ip once daily for 2 weeks followed by concanavalin A stimulation and measured after 12 hrs by ELISA; format: functional, organism-based
Mus musculus [23] = experiment: Hepatoprotective activity against concanavalin A induced C57BL/6 mouse livery injury model assessed as decrease in cleaved caspase-3 level in liver at 5 mg/kg, ip once daily for 2 weeks followed by concanavalin A stimulation and measured after 12 hrs by DAB staining based immunohistological anlaysis; format: functional, organism-based
Mus musculus [24] = experiment: as §1, with “5” for “150”; format: functional, organism-based
Mus musculus [25] = experiment: Hepatoprotective activity against concanavalin A induced C57BL/6 mouse livery injury model assessed as decrease in serum IL-6 level at 5 mg/kg, ip once daily for 2 weeks followed by concanavalin A stimulation and measured after 12 hrs by ELISA; format: functional, organism-based
Mus musculus [26] = experiment: Hepatoprotective activity against concanavalin A induced C57BL/6 mouse livery injury model assessed as decrease in severity of liver damage at 5 mg/kg, ip once daily for 2 weeks followed by concanavalin A stimulation and measured after 12 hrs by H&E staining based […]; format: functional, organism-based
Mus musculus [27] = experiment: Hepatoprotective activity against concanavalin A induced C57BL/6 mouse livery injury model assessed as decrease in Bax level at 5 mg/kg, ip once daily for 2 weeks followed by concanavalin A stimulation and measured after 12 hrs by Western blot analysis; format: functional, organism-based
Mus musculus [28] = experiment: Hepatoprotective activity against concanavalin A induced C57BL/6 mouse livery injury model assessed as increase in Bcl-2 level at 5 mg/kg, ip once daily for 2 weeks followed by concanavalin A stimulation and measured after 12 hrs by Western blot analysis; format: functional, organism-based
Mus musculus [29] = experiment: Hepatoprotective activity against concanavalin A induced C57BL/6 mouse livery injury model assessed as decrease in STAT3 phosphorylation level at 5 mg/kg, ip once daily for 2 weeks followed by concanavalin A stimulation and measured after 12 hrs by Western blot analysis; format: functional, organism-based
Mus musculus [30] = experiment: Hepatoprotective activity against concanavalin A induced C57BL/6 mouse livery injury model assessed as decrease in cleaved caspase 3 level at 5 mg/kg, ip once daily for 2 weeks followed by concanavalin A stimulation and measured after 12 hrs by Western blot analysis; format: functional, organism-based
Mus musculus [31] = experiment: Hepatoprotective activity against concanavalin A induced C57BL/6 mouse livery injury model assessed as decrease in serum ALT level at 5 mg/kg, ip once daily for 2 weeks followed by concanavalin A stimulation and measured after 12 hrs; format: functional, organism-based
Mus musculus [32] = experiment: Hepatoprotective activity against concanavalin A induced C57BL/6 mouse livery injury model assessed as decrease in JAK2 phosphorylation level at 5 mg/kg, ip once daily for 2 weeks followed by concanavalin A stimulation and measured after 12 hrs by Western blot analysis; format: functional, organism-based
Mus musculus [33] = experiment: Hepatoprotective activity against concanavalin A induced C57BL/6 mouse livery injury model assessed as decrease in serum AST level at 5 mg/kg, ip once daily for 2 weeks followed by concanavalin A stimulation and measured after 12 hrs; format: functional, organism-based

SMILES | viability at 5 µM (L02 [1]) [%] | Activity (L02 [3]) | Activity (L02 [4]) | Activity (L02 [6]) | Activity (L02 [8]) | Activity (L02 [9]) | also measured
COc1c(O)c2c(c(Cl)c1OC)CC(C)C(C)Cc1c(Cl)c(OC)c(OC)c(OC)c1-2 (stereo not given) | 67.3 | – | – | – | – | – | –
COc1cc2c(c(OC)c1OC)-c1c(c(Cl)c(OC)c(OC)c1OC(=O)c1cccnc1)CC(C)C(C)C2 (stereo not given) | 93.7 | Non-Toxic | Active | Active | Active | Active | Activity (L02 [2]): Active; Activity (L02 [5]): Active; Activity (L02 [7]): Active
COc1cc2c(c(OC)c1OC)-c1c(c(Cl)c(OC)c(OC)c1OCCCOC(=O)/C=C/c1ccccc1)CC(C)C(C)C2 (stereo not given) | 71 | – | – | – | – | – | –
COc1cc2c(c(OC)c1OC)-c1c(O)c(OC)c(OC)c(N)c1CC(C)C(C)C2 (stereo not given) | 97.1 | Non-Toxic | Active | Active | Active | Active | –
COc1c(Cl)c2c(c(OC)c1OC)-c1c(c(Cl)c(OC)c(OC)c1OCCCOC(=O)C(CCSC)NC(=O)OC(C)(C)C)CC(C)C(C)C2 (stereo not given) | 90.8 | Non-Toxic | Active | Active | Active | Active | –
COc1cc2c(c(OC)c1OC)-c1c(c(N)c(OC)c(OC)c1OS(=O)(=O)c1ccc(C)cc1)CC(C)C(C)C2 (stereo not given) | 89 | Non-Toxic | Active | Active | Active | Active | –
COC(=O)c1ccc(-c2ccc(C(=O)OC)cc2)cc1 [BIPHENYL DIMETHYL DICARBOXYLATE] | 63.9 | – | – | – | – | – | Activity (Mus musculus [10]): Active; Activity (L02 [11]): Active; Activity (Mus musculus [12]): Active; Activity (Mus musculus [13]): Active; Activity (L02 [14]): Active; Activity (Mus musculus [15]): Active; Activity (Mus musculus [16]): Active; Activity (Mus musculus [17]): Active; Activity (Mus musculus [18]): Active; Activity (Mus musculus [19]): Active; Activity (Mus musculus [20]): Active; Activity (Mus musculus [21]): Active; Activity (Mus musculus [22]): Active
COc1ccc(C(=O)Oc2c(OC)c(OC)c(Cl)c3c2-c2c(c(Cl)c(OC)c(OC)c2OC)CC(C)C(C)C3)cc1 (stereo not given) | 53.6 | – | – | – | – | – | –
COc1ccc(C(=O)Oc2c(OC)c(OC)c(Cl)c3c2-c2c(cc(OC)c(OC)c2OC)CC(C)C(C)C3)cc1 (stereo not given) | 70 | – | – | – | – | – | –
COc1cc2c(c(OC)c1OC)-c1c(O)c(OC)c(OC)c(Cl)c1CC(C)C(C)C2 (stereo not given) | 72.5 | – | – | – | – | – | –
COc1c(Cl)c2c(c(OC)c1OC)-c1c(c(Cl)c(OC)c(OC)c1OS(=O)(=O)Cc1ccccc1)CC(C)C(C)C2 (stereo not given) | 71.4 | – | – | – | – | – | –
COc1cc2c(c(OC)c1OC)-c1c(c(Cl)c(OC)c(OC)c1OC(=O)/C=C/c1ccccc1)CC(C)C(C)C2 (stereo not given) | 110 | Non-Toxic | Active | Active | Active | Active | Activity (Mus musculus [23]): Active; Activity (L02 [2]): Active; Activity (Mus musculus [24]): Active; Activity (Mus musculus [25]): Active; Activity (L02 [11]): Active; Activity (L02 [14]): Active; Activity (L02 [5]): Active; Activity (Mus musculus [26]): Active; Activity (Mus musculus [27]): Active; Activity (Mus musculus [28]): Active; Activity (Mus musculus [29]): Active; Activity (L02 [7]): Active; Activity (Mus musculus [30]): Active; Activity (Mus musculus [31]): Active; Activity (Mus musculus [32]): Active; Activity (Mus musculus [33]): Active
COc1cc2c(c(OC)c1OC)-c1c(c(Cl)c(OC)c(OC)c1OC(=O)CCl)CC(C)C(C)C2 (stereo not given) | 68.4 | – | – | – | – | – | –
